{"source": "ChEMBL document CHEMBL1149604", "about": "“Disaccharide analogs as probes for glycosyltransferases in Mycobacterium tuberculosis” (Bioorg Med Chem, 2007)", "data": [{"tested_on": "Mycolicibacterium smegmatis", "experiment": "Activity of Mycobacterial smegmatis-arabinosyltransferase after 1 hr", "units": {"Km": "µM"}, "values": [{"smiles": "CN(C)c1cccc2c(S(=O)(=O)NCCO[C@H]3O[C@H](CO[C@H]4O[C@H](CO)[C@@H](O)[C@@H]4O)[C@@H](O)[C@@H]3O)cccc12", "Km": 680}, {"smiles": "[N-]=[N+]=Nc1cccc2c(S(=O)(=O)NCCO[C@H]3O[C@H](CO[C@H]4O[C@H](CO)[C@@H](O)[C@@H]4O)[C@@H](O)[C@@H]3O)cccc12", "Km": 3070}]}, {"tested_on": "Mycolicibacterium smegmatis", "experiment": "Activity of Mycobacterial smegmatis-galactosyltransferase after 1 hr", "units": {"Km": "µM"}, "values": [{"smiles": "CN(C)c1cccc2c(S(=O)(=O)NCCO[C@@H]3O[C@@H]([C@@H](O)CO[C@@H]4O[C@@H]([C@@H](O)CO)[C@H](O)[C@H]4O)[C@H](O)[C@H]3O)cccc12", "Km": 2380}, {"smiles": "[N-]=[N+]=Nc1cccc2c(S(=O)(=O)NCCO[C@@H]3O[C@@H](C[C@H](CO)OC4O[C@@H]([C@@H](O)CO)[C@H](O)[C@H]4O)[C@H](O)[C@H]3O)cccc12", "note": "(stereo partly specified)", "Km": 2770}, {"smiles": "CN(C)c1cccc2c(S(=O)(=O)NCCO[C@@H]3O[C@@H](C[C@H](CO)O[C@@H]4O[C@@H]([C@@H](O)CO)[C@H](O)[C@H]4O)[C@H](O)[C@H]3O)cccc12", "Km": 7330}, {"smiles": "[N-]=[N+]=Nc1cccc2c(S(=O)(=O)NCCO[C@@H]3O[C@@H]([C@@H](O)CO[C@@H]4O[C@@H]([C@@H](O)CO)[C@H](O)[C@H]4O)[C@H](O)[C@H]3O)cccc12", "Km": 1980}]}]}
